Series [1] can be described thus: Lipophilicity, logD of compound at pH 7.4 by shake flask assay based LC-MS/MS analysis. The settings on record: buffer. The class given is physicochemical.
The nature of series [2]: Aqueous solubility of the compound by LC-MS/MS analysis. The class given is physicochemical. The settings on record: buffer.
Series [3] can be described thus: Metabolic stability in human Hepatocyte assessed as intrinsic clearance in 1 million cells/mL measured upto 60 mins by LC-MS/MS analysis. The settings on record: hepatocytes, read-out: CLH. The class given is ADME, cell-based.
Series [4] can be described thus: Metabolic stability in rat Hepatocyte assessed as intrinsic clearance in 1 million cells/mL measured upto 120 mins by LC-MS/MS analysis. It counts as ADME, cell-based. Conditions: hepatocytes, read-out: CLH.
The nature of series [5]: Metabolic stability in mouse Hepatocyte assessed as intrinsic clearance in 1 million cells/mL by LC-MS/MS analysis. The settings on record: hepatocytes, read-out: CLH. It counts as ADME, cell-based.
A short description of series [6]: Apparent permeability in human Caco-2 cells at 10 uM incubated for 45 to 120 mins by LC-MS/MS analysis. The class given is ADME, cell-based. The settings on record: time 45-120 min, read-out: permeability. In general terms: Caco-2 cells form a polarised layer with tight junctions and transporters.
The nature of series [7]: Oral bioavailability in lean C57BL/6J mouse at 100 umol/kg dosed daily for 7 days by HPLC-MS analysis. It counts as ADME, organism-based. The settings on record: in vivo, at 100 µmol/kg, time 7 day.
A short description of series [8]: Cmax in lean C57BL/6J mouse at 100 umol/kg, po dosed daily for 7 days by HPLC-MS analysis. It counts as ADME, organism-based. Details: route oral, dose 100 µmol/kg, time 7 day. Conditions: in vivo.
Series [9] can be described thus: Half life in lean C57BL/6J mouse at 100 umol/kg, po dosed daily for 7 days by HPLC-MS analysis. The class given is ADME, organism-based. Conditions: in vivo, dose 100 µmol/kg, time 7 day.
The nature of series [10]: Metabolic stability in human liver microsomes assessed as intrinsic clearance measured upto 30 mins by LC-MS/MS analysis. The class given is ADME, Microsome. The settings on record: read-out: CLH.

≈ marks a conversion by molar mass, not a printed value. A value given as a limit tells only on which side of the number the result lay.

As usually defined, the logD is lipophilicity at a set pH, counting ionised and neutral species. High values mean higher lipophilicity, low ones lower lipophilicity. As a reminder, the solubility is the concentration that dissolves in the medium under given conditions. As a reminder, the Cmax is the peak of the concentration-time curve. As a reminder, the half-life is the time needed for the level to fall by half in the phase considered. `O=C(O)c1nn(Cc2ccc(Cl)c(Cl)c2)c(=O)c2cc(Oc3ccccc3)ccc12` had a logD in series [1] of 2.3. Moreover, in series [2], the solubility came to 324 µM (≈ 143 µg/mL). Further, the hepatocyte CLint in [3] was found to be 15.2 µL/min/1e6 cells; in [4], 8.8 µL/min/1e6 cells; in [5], 10 µL/min/1e6 cells. In series [6], the Papp at 10 µM was 13 ×10⁻⁶ cm/s. For the same molecule, the bioavailability in series [7] turned out to be 109%. Also, the Cmax in series [8] was determined as 167 µM. The half-life in series [9] was 5 h. Besides, in series [10], the microsomal CLint is below 4 µL/min/mg.

Values taken from ChEMBL document CHEMBL5046321, “Discovery by Virtual Screening of an Inhibitor of CDK5-Mediated PPARγ Phosphorylation” (ACS Med Chem Lett, 2022).
